Data reported in US20080039442A1, “Compounds With Kv4 Ion Channel Activity” (Devgen NV, priority 2004, published 2008).
pIC50: −log10 of the molar value.

molecular target: T1, human Kv4.3/KChIP2.2 potassium channel (Homo sapiens, UniProt Q9UK17); test: Whole cell patch clamp, CHO-K1 cells stably expressing Kv4.3/KChIP2.2; format: cell-based; settings: CHO-K1; 1 μM; read-out: Kv4.3 charge in %: remaining current measured after application of the compound and relative to the blank
T1 construct: expressed in transfected cells
T1 sequence (Q9UK17 1-655): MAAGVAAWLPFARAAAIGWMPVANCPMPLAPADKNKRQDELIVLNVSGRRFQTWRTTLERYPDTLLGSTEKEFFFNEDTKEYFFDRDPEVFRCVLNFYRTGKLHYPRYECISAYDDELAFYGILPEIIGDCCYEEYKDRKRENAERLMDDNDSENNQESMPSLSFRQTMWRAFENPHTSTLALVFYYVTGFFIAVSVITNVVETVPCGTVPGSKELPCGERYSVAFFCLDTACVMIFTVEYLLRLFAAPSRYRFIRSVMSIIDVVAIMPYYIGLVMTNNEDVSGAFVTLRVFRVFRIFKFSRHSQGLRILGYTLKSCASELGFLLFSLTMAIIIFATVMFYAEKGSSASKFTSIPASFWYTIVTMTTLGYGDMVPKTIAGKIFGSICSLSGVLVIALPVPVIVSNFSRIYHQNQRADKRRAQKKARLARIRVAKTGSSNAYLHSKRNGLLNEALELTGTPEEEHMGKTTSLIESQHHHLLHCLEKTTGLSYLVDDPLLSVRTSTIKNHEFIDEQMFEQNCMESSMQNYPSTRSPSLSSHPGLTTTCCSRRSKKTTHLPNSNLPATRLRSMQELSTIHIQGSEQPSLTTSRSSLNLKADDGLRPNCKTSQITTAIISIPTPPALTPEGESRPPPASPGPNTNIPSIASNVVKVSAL
T1 sequence (Q9NS61 1-270 partner): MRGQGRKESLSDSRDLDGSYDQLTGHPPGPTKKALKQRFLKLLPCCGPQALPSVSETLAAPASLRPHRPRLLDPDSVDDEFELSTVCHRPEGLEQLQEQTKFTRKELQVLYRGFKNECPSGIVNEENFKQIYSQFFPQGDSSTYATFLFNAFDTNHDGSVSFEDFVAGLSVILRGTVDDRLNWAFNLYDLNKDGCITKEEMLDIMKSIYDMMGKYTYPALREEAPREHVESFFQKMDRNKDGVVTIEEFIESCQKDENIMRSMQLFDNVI
Procedure: For this experiment, a recombinant CHO-K1 cell line stably expressing the human Kv4.3/KChIP2.2 potassium channel was used.
Protocol B: The cells were cultured in 94 mm culture dishes under the culturing conditions of 5% CO2 and 37° C. Subculturing was performed every 3-4 days, by removing the media and then rising the dish with 8 ml PBS (phosphate buffered saline). The PBS was removed and 1 ml Trypsin/EDTA was added to the cells. The cells were incubated about 2 min at 37° C. or 5 min at room temperature and then the dish was rapped to detach and singularize the cells. To inactivate the enzyme 9 ml of media was added and the solution was pipetted up and down to break up clumps of cells. Part of the suspension was then transferred to a new 94 mm dish and media was added to a final volume of 8 ml. If necessary the cells could be seeded onto 35 mm or 94 mm dishes (2 ml media per 35 mm dish and 8 ml media per 94 mm dish). The media was changed every 2-3 days. The media used was the solution for culturing the cells described above. For stable cells antibiotic G418, Hygromycin, Blasticidin, or Zeocin were not added.
The preparation of cells for electrophysiological experiments was performed as described in protocol C hereunder.
Protocol C: The transfected cells and stable cells were transferred from 35 mm cell culture dishes onto coverslips using cold PBS: The media was removed and 0.3 ml of PBS (4-10° C.) was added. The cells were incubated 5 min at room temperature. The dish was rapped to detach and singularize the cells and 1.7 ml media was added and the solution pipetted up and down to break up clumps of cells. Part of the cell suspension was then transferred to a 35 mm dish with coverslips and media. The transfected cells and stable cells could also be transferred from 35 mm cell culture dishes onto coverslips using trypsin: The media was removed and the dish rinsed with 3 ml PBS. The PBS was removed and 0.3 ml 1× Trypsin/EDTA was added and the cells incubated 5 min at room temperature. The dish was rapped to detach and singularize the cells and 1.7 ml media was added and the solution pipetted up and down to break up clumps of cells. Part of the cell suspension was then transferred to a 35 mm dish with coverslips and media.
10 mM stock solutions of the compounds were prepared in DMSO. Solutions of the compounds were prepared by dilution of stock solution in bath solution. If the required stock solution volume was theoretically below 1 μl, bath solutions with higher compound concentration were used for dilution. The maximal DMSO concentration during experiments was 0.1% (v/v).
For patch clamp experiments, the following solutions in demineralized water as vehicle were used (concentration in mM).
Bath (external) solution: 4 KCl, 135 NaCl, 2 CaCl2, 1 MgCl2, 10 D(+)-Glucose, 5 HEPES, pH 7.4 (NaOH).
Pipette (internal) solution: 130 KCl, 1 MgCl2, 10 EGTA, 5 Na2ATP, 5 HEPES, pH 7.4 (KOH).
Experiments were performed using a patch clamp set-up.
Measurements were performed at room temperature (20-25° C.). […] Each cell acted as its own control. The effect of compounds on Kv4.3/KChIP2.2 mediated currents was investigated at one concentration ([…]) with two replicates each (c=1, n=2).
The test protocols are illustrated in FIG. 1 and Table 4. […] Each test protocol consisted of 4 segments.
Subsequently, 14 test pulses (series 1; FIG. 1b and Table 4b) were applied at 0.1 Hz under constant superfusion with bath solution. The protocol was initiated by a voltage jump to −100 mV (400 ms) to achieve full inactivation. Then the Kv4.3/KChIP2.2 channels were transferred to the open state by depolarization to +40 mV for 300 milliseconds (activation). Only cells generating current amplitudes between 1 nA and 50 nA were used for the experimental procedure. No or negligible rundown was observed.
Then, 36 test pulses (series 2) were applied at 0.1 Hz under constant superfusion with the compound dissolved in bath solution. […]

remaining activity at 1 µM [%] | SMILES
89 | COc1ccc(CNC(=O)c2cc3ccccc3o2)c(OC)c1 [Compound 12, benzofuran-2-carboxylic acid 2,4-dimethoxy-benzylamide]
80 | Cc1ccc(C2CCN(C(=O)c3cc4cc(Cl)ccc4o3)CC2)cc1 [Compound 98, (5-chloro-benzofuran-2-yl)-(4-p-tolyl-piperidin-1-yl)-methanone]
59 | Cc1c(C(=O)N2CCCCC2Cc2ccccc2)oc2ccc(Cl)cc12 (centres unmarked) [Compound 106, (2-benzyl-piperidin-1-yl)-(5-chloro-3-methyl-benzofuran-2-yl)-methanone]
83 | COc1ccc(CC(=O)c2cc3ccccc3o2)c(OC)c1 [Compound 23, 1-benzofuran-2-yl-2-(2,4-dimethoxy-phenyl)-ethanone]
87 | O=C(NCc1ccccc1)c1cc2cc(Cl)ccc2o1 [Compound 47, 5-chloro-benzofuran-2-carboxylic benzylamide]

same assay, conditions: CHO-K1; 1 μM; read-out: Kv4.3 peak in %: remaining peak height measured after application of the compound and relative to the blank

remaining activity at 1 µM [%] | SMILES
97 | COc1ccc(CNC(=O)c2cc3ccccc3o2)c(OC)c1 [Compound 12, benzofuran-2-carboxylic acid 2,4-dimethoxy-benzylamide]
97 | Cc1ccc(C2CCN(C(=O)c3cc4cc(Cl)ccc4o3)CC2)cc1 [Compound 98, (5-chloro-benzofuran-2-yl)-(4-p-tolyl-piperidin-1-yl)-methanone]
87 | Cc1c(C(=O)N2CCCCC2Cc2ccccc2)oc2ccc(Cl)cc12 (centres unmarked) [Compound 106, (2-benzyl-piperidin-1-yl)-(5-chloro-3-methyl-benzofuran-2-yl)-methanone]
99 | COc1ccc(CC(=O)c2cc3ccccc3o2)c(OC)c1 [Compound 23, 1-benzofuran-2-yl-2-(2,4-dimethoxy-phenyl)-ethanone]
95 | O=C(NCc1ccccc1)c1cc2cc(Cl)ccc2o1 [Compound 47, 5-chloro-benzofuran-2-carboxylic benzylamide]

same assay, conditions: Table 12; read-out: Kv4.3 charge IC50

pIC50 | SMILES
5.88 | Cc1ccc2[nH]cc(CCNC(=O)c3cc4cc(Cl)ccc4o3)c2c1 [Compound 3, 5-chloro-benzofuran-2-carboxylic acid [2-(5-methyl-1H-indole-3-yl)-ethyl]-amide]
6.05 | O=C(c1ccc(Cl)cc1)C1CCN(C(=O)c2cc3cc(Cl)ccc3o2)CC1 [Compound 7, (5-chloro-benzofuran-2-yl)-[4-(4-chloro-benzoyl)-piperidin-1-yl]-methanone]

test system: not given; test: not given; settings: not given

melting point [°C] | SMILES
174.7 to 177.2 | CSc1ccccc1CNC(=O)c1cc2cc(Cl)ccc2o1 [Compound 60, 5-chloro-benzofuran-2-carboxylic acid 2-methylsulfanyl-benzylamide]
105.1 to 109.4 | CN(C)C(=O)c1cccc(CNC(=O)c2cc3cc(Cl)ccc3o2)c1 [Compound 66, 5-chloro-benzofuran-2-carboxylic acid 3-dimethylcarbamoyl-benzylamide]
159 to 161 | CSc1ccc(CNC(=O)c2cc3cc(Cl)ccc3o2)cc1 [Compound 61, 5-chloro-benzofuran-2-carboxylic acid 4-methylsulfanyl-benzylamide]
114.6 to 116.2 | O=C(c1cc2cc(Cl)ccc2o1)N1CCC(Cc2ccccc2)CC1 [Compound 101, (4-benzyl-piperidin-1-yl)-(5-chloro-benzofuran-2-yl)-methanone]
123.3 to 125.4 | O=C(c1cc2cc(Cl)ccc2o1)N1CCCC1c1ccccc1 (centres unmarked) [Compound 103, (5-chloro-benzofuran-2-yl)-(2-phenyl-pyrrolidin-1-yl)-methanone]
123.1 to 124 | Cc1ccc(C)c(CNC(=O)c2cc3cc(Cl)ccc3o2)c1 [Compound 90, 5-chloro-benzofuran-2-carboxylic acid 2,5-dimethyl-benzylamide]
180.5 to 182 | Cc1cccc(Cl)c1CNC(=O)c1sc2ccc(Cl)cc2c1C [Compound 110, 5-chloro-3-methyl-benzo[b]thiophene-2-carboxylic acid 2-chloro-6-methyl-benzylamide]
178.1 to 181.8 | O=C(NCc1ccc(-c2cnns2)cc1)c1cc2cc(Cl)ccc2o1 [Compound 91, 5-chloro-benzofuran-2-carboxylic acid 4-[1,2,3]thiadiazol-5-yl-benzylamide]
141.8 to 143 | Cc1ccccc1CNC(=O)c1cc2cc(Cl)ccc2o1 [Compound 69, 5-chloro-benzofuran-2-carboxylic acid 2-methyl-benzylamide]
118.8 to 120.4 | COc1ccc(CNC(=O)c2cn(Cc3ccccc3)c3ccccc23)c(OC)c1
148.4 to 149.4 | Cc1cccc(CNC(=O)c2cc3cc(Cl)ccc3o2)c1 [Compound 70, 5-chloro-benzofuran-2-carboxylic acid 3-methyl-benzylamide]
130.4 to 131 | O=C(NCc1cccc(-c2ccccc2)c1)c1cc2cc(Cl)ccc2o1 [Compound 73, 5-chloro-benzofuran-2-carboxylic acid (biphenyl-3-ylmethyl)-amide]
146.1 to 147.4 | COc1ccccc1C1CCN(C(=O)c2cc3cc(Cl)ccc3o2)CC1 [Compound 95, (5-chloro-benzofuran-2-yl)-[4-(2-methoxy-phenyl)-piperidin-1-yl]-methanone]
125.8 to 127.9 | O=C(NCc1ccccc1OC(F)(F)F)c1cc2cc(Cl)ccc2o1 [Compound 87, 5-chloro-benzofuran-2-carboxylic acid 2-trifluoromethoxy-benzylamide]
93.6 to 95.5 | O=C(NCc1ccc(Oc2ccccc2)cc1)c1cc2cc(Cl)ccc2o1 [Compound 68, 5-chloro-benzofuran-2-carboxylic acid 4-phenoxy-benzylamide]
147.9 | COC(=O)[C@H](NC(=O)c1cc2cc(Cl)ccc2o1)c1ccccc1 [Compound 84, (R)-[(5-chloro-benzofuran-2-carbonyl)-amino]-phenyl-acetic acid methyl ester]
210 to 212 | Cc1cc(Cl)cc(Cl)c1CNC(=O)c1cc2cc(Cl)ccc2o1 [Compound 119, 5-chloro-benzofuran-2-carboxylic acid 2,4-dichloro-6-methyl-benzylamide]
89.5 to 91.6 | O=C(NCc1ccc(F)c(C(F)(F)F)c1)c1cc2ccccc2o1 [Compound 50, benzofuran-2-carboxylic acid 4-fluoro-3-trifluoromethyl-benzylamide]
163.1 to 166.2 | O=C(NCc1ccncc1)c1cc2cc(Cl)ccc2o1 [Compound 81, 5-chloro-benzofuran-2-carboxylic acid (pyridin-4-ylmethyl)-amide]
76.5 to 79.1 | COC(=O)[C@@H](NC(=O)c1cc2cc(Cl)ccc2o1)c1ccccc1 [Compound 85, (S)[(5-chloro-benzofuran-2-carbonyl)-amino]-phenyl-acetic acid methyl ester]
